Counter-ions that a name gives are not always drawn. Like-named read-outs stand apart in the source and are kept apart here.

Experiment [1] concerns NCI-H441 cells. As to the kind of experiment: 3D cell proliferation assay (CellTiter Glo-3D) in NCI-H441 cells. The class given is cell-based. The conditions noted are these: NCI-H441, human lung cancer cell strain, KRAS G12V mutation, 3D culture, 2% FBS, 5 days, read-out: H441 AP IC50. From the text: MIA PaCa-2 cells were purchased from ATCC, Cat. No. CRL-1420; AsPC-1 cells were purchased from ATCC, Cat. No. CRL-1682; NCI-H441 cells were purchased from ATCC, Cat. No. HTB-174; NCI-H1975 cells were purchased from ATCC, Cat. No. CRL-5908; DMEM medium was purchased from Gibco, Cat. No. 11995-065; RPMI-1640 medium was purchased from Gibco, Cat. No. 11875-093; FBS was purchased from Gibco, Cat. No. 10099-141C; penicillin/streptomycin double-antibiotic solution (PS) was purchased from Gibco, Cat. No. 15140-122; Horse serum was purchased from Gibco, Cat. No. 16050130; trypsin (containing EDTA) was purchased from Gibco, Cat. No. 25200-072; DMSO was purchased from VWRAMRESCO, Cat. No. 0231-500ML; 384-well cell culture plates were purchased from Corning, Cat. No. 3830; white-bottomed, opaque 384-well assay plates were purchased from Corning, Cat. No. 3570; CellTiter Glo-3D kit was purchased from Promega, Cat. No. G9683; cell counter was purchased from CHEMOMETEC, model: NC-200; microplate reader was purchased from PerkinElmer, model: EnVision.
MIA PaCa-2, a human pancreatic cancer cell strain endogenously containing a KRAS^G12Cmutation, was cultured in a complete medium containing DMEM + 10% FBS + 2.5% Horse serum + 1% PS. AsPC-1, a human pancreatic cancer cell strain endogenously containing a KRAS^G12D mutation, was cultured in a complete medium containing RPMI-1640 + 10% FBS + 1% PS. NCI-H441 cells, a human lung cancer cell strain endogenously containing a KRAS^G12V mutation, were cultured in a complete medium containing RPMI-1640 + 10% FBS + 1% PS. NCI-H1975, a KRAS wild-type human lung cancer cell strain whose cell proliferation […], was cultured in a complete medium containing RPMI-1640 + 10% FBS + 1% PS.
The cells were digested with trypsin (containing EDTA), collected in their respective low-serum complete media containing 2% FBS (for MIA Paca-2 cell culture: DMEM + 2% FBS + 0.5% Horse serum + 1% PS), and counted. After the cell density was adjusted as required, MIA PaCa-2 cells (200 cells/well), AsPC-1 cells (800 cells/well), NCI-H441 cells (800 cells/well), or NCI-H1975 cells (400 cells/well) were seeded into a 384-well cell culture plate, with the volume of the medium in each well being 45 µL. The cell culture plate was incubated in an incubator at 37 °C with 5% CO2 overnight. A series of 3.16-fold gradient dilutions of a 1000× compound stock solution were prepared with DMSO, and then diluted 100-fold with the complete medium containing 2% FBS described above to give 10× compound stock solutions. On the day after cell seeding, 5 µL of the 10× compound stock solution was added to each cell culture well. As a result, the final concentration of the compound in the cell culture well became 1×, and the DMSO content in the well was 0.1%. In addition to the compound-treated wells described above, cell-containing DMSO control wells (with 5 µL of the complete medium containing 1% DMSO added to each well) and cell-free medium control wells (containing 50 µL of the complete medium with 2% FBS) were also set. The culture plate was incubated in an incubator at 37 °C with 5% CO2 for another 5 days, and then 30 µL of CellTiter-Glo working solution was added to each well. The mixture was well mixed, incubated for 30 min, left to stand at room temperature for 30 min, and then transferred to a white-bottomed, opaque 384-well assay plate at 40 µL/well. The chemiluminescence values (RLU) were measured using a microplate reader, and the cell proliferation inhibition rate for each well was calculated: IR(%) = (RLUDMSO - RLUcompound)/(RLUDMSO - RLUblank) × 100%, where RLUDMSO is the average RLU signal value from the DMSO control well samples, RLUblank is the average RLU signal value from the medium control well samples, and RLUcompound is the RLU signal value from the compound-treated well samples. […]
(ATP-based viability assays read luminescence as a measure of living cells.)

Experiment [2] relates to p-ERK. As to the kind of experiment: Cell p-ERK assay (HTRF, Advance ERK phospho-T202/Y204 kit) in NCI-H441 cells. The class given is cell-based. The conditions noted are these: NCI-H441, human non-small cell lung cancer cell strain, KRAS G12V mutation, 3 h compound incubation. How it is done: AsPC-1 cells were purchased from ATCC, Cat. No. CRL-1682; NCI-H441 cells were purchased from ATCC, Cat. No. HTB-174; RPMI-1640 medium was purchased from Gibco, Cat. No. 11875-093; FBS was purchased from Gibco, Cat. No. 10099-141C; penicillin/streptomycin double-antibiotic solution (PS) was purchased from Gibco, Cat. No. 15140-122; trypsin (containing EDTA) was purchased from Gibco, Cat. No. 25200-072; DMSO was purchased from VWRAMRESCO, Cat. No. 0231-500ML; 96-well cell culture plates were purchased from Corning, Cat. No. 3599; white-bottomed, opaque 96-well plates were purchased from Cisbio, Cat. No. 66PL96025; Advance ERK phospho-T202/Y204 kit was purchased from Cisbio, Cat. No. 64AERPEH; cell counter was purchased from CHEMOMETEC, model: NC-200; microplate reader was purchased from PerkinElmer, model: EnVision.
AsPC-1, a human pancreatic cancer cell strain endogenously containing a KRAS^G12D mutation, was cultured in a complete medium containing RPMI-1640 + 10% FBS + 1% PS. NCI-H441, a human non-small cell lung cancer cell strain endogenously containing a KRAS^G12V mutation, was cultured in a complete medium containing RPMI-1640 + 10% FBS + 1% PS.
The cells were digested with trypsin (containing EDTA), collected in their corresponding complete media, and counted. The density of the cell suspensions was adjusted with their corresponding complete media, and AsPC-1 cells (10000 cells/well) or NCI-H441 cells (20000 cells/well) were seeded into a 96-well cell culture plate, with the volume of the medium in each well being 80 µL. The cell culture plate was incubated in an incubator at 37 °C with 5% CO2 overnight. A series of 3.16-fold gradient dilutions of a 1000× compound stock solution were prepared with DMSO, and then diluted 200-fold with the complete medium described above to give 5× compound stock solutions. On the day after cell seeding, 20 µL of the 5× compound stock solution was added to each cell culture well. As a result, the final concentration of the compound in the cell culture well became 1×, and the DMSO content in the well was 0.1%. In addition to the compound-treated wells described above, cell-containing DMSO control wells were also set. A complete medium containing 0.5% DMSO was added at 20 µL/well. After the mixture was well mixed, the culture plate was incubated in the incubator at 37 °C with 5% CO2 for another 3 h. The medium was then removed from the culture wells, and 50 µL of cell lysis buffer (from Advance ERK phospho-T202/Y204 kit) was added to each well. The mixture was well mixed, incubated for 30 min, and then transferred to a white-bottomed, opaque 96-well assay plate at 16 µL/well, and separately, 16 µL of cell lysis buffer was added to additional wells (serving as blank wells) in the assay plate. After the transfer was completed, 4 µL of p-ERK HTRF antibody mixture (from Advance ERK phospho-T202/Y204 kit) was added to each well of the assay plate, followed by a 4-hour incubation. The HTRF signal values (RLU) were then measured using a microplate reader, and the inhibition rate of the compound against p-ERK levels was calculated as follows: IR(%) = (RLUDMSO - RLUcompound)/(RLUDMSO - RLUblank) × 100%, where RLUDMSO is the average HTRF signal value from the DMSO control well samples, RLU is the average HTRF signal value from the blank well samples, and RLUcompound is the HTRF signal value from the compound-treated well samples. Using an XLfit software, the IR(%) values were plotted against the logarithm of the compound concentrations, and the dose-response curves were fitted using the four-parameter method to calculate the IC50 values.
In general terms: In TR-FRET formats the signal depends on donor and acceptor labels being close together.

Turning to `CCn1nc2c(c1-c1cc(C#CCN3CCS(=O)(=O)CC3)cnc1C(C)OC)CC(C)(C)COC(=O)C1CCCN(N1)C(=O)C(NC(=O)C(C(C)C)N(C)C(=O)Cn1ccc3ccccc31)Cc1nc(cs1)C=C2` (single isomer, unassigned) [Compound Z54-1], the concentration for half-maximal inhibition (IC50) (usually the concentration needed to halve the response being measured) in experiment [1] (Homo sapiens, NCI-H441, 120 h) was determined as 240 nM; in experiment [2] (Homo sapiens, NCI-H441, 3 h) it was 150 nM.
For `CO[C@@H](C)c1ncc(C#CCN2CCS(=O)(=O)CC2)cc1-c1c2c(nn1C(C)C)/C=C/c1csc(n1)C[C@H](NC(=O)[C@H](Cc1cccc3ncccc13)C(C)C)C(=O)N1CCC[C@H](N1)C(=O)OCC(C)(C)C2` [Compound Z44-2, (2R)-N-((4^2Z,8^3S,2E,6S)-1^5-(5-(3-(1,1-dioxidothiomorpholino)prop-1-yn-1-yl)-2-((S)-1-methoxyethyl)pyridin-3-yl)-1^1-isopropyl-12,12-dimethyl-7,9-dioxo-8^1,8^2,8^3,8^4,8^5,8^6-hexahydro-1^1H-10-oxa-4(4,2)-thiazola-8(1,3)-pyridazina-1(3,4)-pyrazolocyclotridec-2-en-6-yl)-3-methyl-2-(quinolin-5-ylmethyl)butanamide formate], the half-maximal inhibitory concentration (IC50) in experiment [1] worked out at 76.3 nM; in experiment [2], 15.4 nM.
With `CCn1nc2c(c1-c1cc(C#CCN3CCS(=O)(=O)CC3)cnc1[C@H](C)OC)CC(C)(C)COC(=O)[C@@H]1CCCN(N1)C(=O)[C@@H](NC(=O)[C@H](C(C)C)N(C)c1ccc3ncn(C)c3c1)Cc1nc(cs1)/C=C/2` (atropisomer, axis not shown; (Ra)) [Compound Z115, (2S)-N-((4^2Z,8^3S,2E,6S)-1^5-(Ra)-(5-(3-(1,1-dioxidothiomorpholino)prop-1-yn-1-yl)-2-((S)-1-methoxyethyl)pyridin-3-yl)-1^1-ethyl-12,12-dimethyl-7,9-dioxo-8^1,8^2,8^3,8^4,8^5,8^6-hexahydro-1^1H-10-oxa-4(4,2)-thiazola-8(1,3)-pyridazina-1(3,4)-pyrazolocyclotridec-2-en-6-yl)-3-methyl-2-(methyl(1-methyl-1H-benzo[d]imidazol-6-yl)amino)butanamide], the IC50 in experiment [1] (Homo sapiens, NCI-H441, 120 h) turned out to be 18.9 nM; in experiment [2] (Homo sapiens, NCI-H441, 3 h), 3.97 nM.
The corresponding values for `CCn1c(OC)c2c(c1-c1cc(C#CCN3CCS(=O)(=O)CC3)cnc1[C@H](C)OC)CC(C)(C)COC(=O)[C@@H]1CCCN(N1)C(=O)[C@@H](NC(=O)[C@H]1[C@H](C)[C@@H]1C)Cc1nc(cs1)/C=C/2` (atropisomer, axis not shown; (Ra)) [Compound Z191, (1r,2R,3S)-N-((4^2Z,8^3S,2E,6S)-(Ra)-1^5-(5-(3-(1,1-dioxidothiomorpholino)prop-1-yn-1-yl)-2-((S)-1-methoxyethyl)pyridin-3-yl)-1^1-ethyl-1^2-methoxy-12,12-dimethyl-7,9-dioxo-8^1,8^2,8^3,8^4,8^5,8^6-hexahydro-1^1H-10-oxa-4(4,2)-thiazola-8(1,3)-pyridazina-1(3,4)-pyrrolacyclotridecaphan-2-en-6-yl)-2,3-dimethylcyclopropane-1-carboxamide] are 7.19 nM and 3.92 nM.
As to “(2R)-N-((4^2Z,8^3S,2E,6S)-(Ra)-1^5-(5-(3-(1,1-dioxothiomorpholino)prop-1-yn-1-yl)-2-((S)-1-methoxyethyl)pyridin-3-yl)-1^1-ethyl-12,12-dimethyl-7,9-dioxo-8^1,8^2,8^3,8^4,8^5,8^6-hexahydro-1^1H-10-oxo-4(4,2)-thiazola-8(1,3)-pyridazina-1(3,4)-pyrrolacyclotridecaphan-2-en-6-yl)-3-methyl-2-(N-methyl-2-phenylacetamido)butanamide [Compound Z47-2]”, the 50% inhibitory concentration (IC50) in experiment [1] is 37.6 nM; in experiment [2], 17.3 nM.
Turning to `CCn1nc2c(c1-c1cc(C#CCN3CCS(=O)(=O)CC3)cnc1C(C)OC)CC(C)(C)COC(=O)C1CCCN(N1)C(=O)C(NC(=O)C(C)Cc1ccnc(NC)c1)Cc1nc(cs1)C=C2` (single isomer, unassigned) [Compound Z52-2], the half-inhibitory concentration (IC50) in experiment [1] came out at 25 nM; in experiment [2] it was 32 nM.
In the case of `CCn1nc2c(c1-c1cc(C#CCN3CCS(=O)(=O)CC3)cnc1[C@H](C)OC)CC(C)(C)COC(=O)[C@@H]1CCCN(N1)C(=O)[C@@H](NC(=O)[C@@H](NC(=O)OC(C)(C)C)C(C)C)Cc1nc(cs1)/C=C/2` (atropisomer, axis not shown; (Ra)) [Compound Z53], the 50% inhibitory concentration (IC50) in experiment [1] (Homo sapiens, NCI-H441, 120 h) is 115 nM; in experiment [2] (Homo sapiens, NCI-H441, 3 h), 182 nM.

The record behind these values is patent EP4772514A1, “MACROCYCLIC COMPOUNDS, PREPARATION METHOD THEREFOR, AND USE THEREOF” (Genfleet Therapeutics (Shanghai) Inc., priority 2023, dated 2025).
